Results reported in patent publication US20240252582A1, “METHODS FOR TREATING AMBLYOPIA” (City University of Hong Kong, priority 2023, published 2024).
Non-standard residues stand in square brackets, D forms with d. Phe(3-Br) = N[C@@H](Cc1cccc(Br)c1)C(=O)O; Nle = CCCC[C@H](N)C(=O)O

Key:
[1] = system: juvenile C57BL/6 mice model of amblyopia (LTMD); assay: In-vivo electrophysiology (spike recording in V1), contralateral bias index after long-term monocular deprivation
Procedure: The mice are anesthetized through the application of a K-X combination during the surgical preparation. The body temperatures of the mice are maintained at 37° C. by use of a homeostatically controlled heating pad during the surgery. Following the induction of anesthesia, each mouse is mounted on a stereotaxic instrument (RWD Life Science, Shenzhen, China) and an incision is made along the midline of the head. The stereotaxic instrument is adjusted to place the bregma and lambda points of the skull on a flat skull surface (anteroposterior: −3.2 mm to −4.0 mm; mediolateral: 3.0-3.8 mm, relative to bregma). A piece of the scalp over the V1 is removed to expose the cortex, and a bone screw is fixed in the frontal bone as the reference electrode. The exposed cortical surface is then covered with extracellular saline (in mM: 125 NaCl, 5 KCl, 10 glucose, 10 4-(2-hydroxyethyl)-1-piperazineethanesulphonicacid [HEPES], and 2 CaCl2; pH adjusted to 7.4) to prevent drying of the surface. The electrode is lowered into the brain to an appropriate depth (V1≤1 mm) and is allowed to settle for 30 min before recording is begun. In each mouse, 3-4 separate penetrations are spaced evenly at least 200 μm apart across the binocular region of V1. The eyes are kept moist with ophthalmic lubricant ointment until recording to prevent drying while enabling clear optical transmission. At the end of the recording, the mice are euthanized by injection of an overdose of Dorminal (300 mg/kg).
Visual stimuli of sinusoidal drifting gratings with increasing orientation angles(0-330°) and 0.4 cpd are presented in random order to alternate eyes. The spike recordings are performed with the use of a polyimide-coated platinum/iridium (70:30) ribbon microelectrode array (Clunbury Scientific LLC, USA). The tip resistances are 30-50 kΩ. The A-M Systems 3600 (A-M Systems, USA) and CED Micro 1401-3 (Cambridge Electronic Design, UK) instruments are used as the amplifier and data acquisition system, respectively. The signals are sampled at 25 kHz and bandpass-filtered at 300 Hz-3 KHz for spike, amplified, and fed to spike2 software (Cambridge Electronic Design, UK). Offline analysis is performed using MATLAB (R2020b, Math Works, USA). To begin, the raw data are transformed into a MATLAB-compatible format. Spike sorting is used to distinguish various units collected at the same time in the spike data. Wave clus, a MATLAB tool, is used to categorize the units based on the characteristics of their waveforms.
The neuronal response in the Visual cortex (V1) is recorded extracellularly, while the same visual stimulus with varied orientation is presented to either of the eyes alternatively, and the relative strength of the response is determined.
To quantify the deprivation effect, the inventors calculate the contralateral bias index (CBI) from spikes (response from the single neuron) using the following formula:
where NT is the total number of units and NX is the number of units with OD scores equal to x (x=1, 2, 3, 5, 6, 7). For the sum of the number of cells in each category is used to calculate the CBI for each animal.
FIGS. 1A and 1B, show the timeline of the experimental setup, i.e. LTMD, surgery, dosing, and in-vivo electrophysiology used in the second and third experiments. In the second experiments, in juvenile after LTMD, saline or CCK8s (Cholecystokinin octapeptide (Tocris Bioscience, UK): 1 ul each day (10 ng/ul), Cholecystokinin octapeptide (Tocris Bioscience, UK)) is infused (treatment) for 15 days (from P42 to P57) in V1. […] The ipsilateral eye is dominated. Contrarily, in the group treated with CCK8s (infusion in V1), the ocular dominance shifts from the ipsilateral eye towards the contralateral eye (CBI=0.65, 12 animals) (FIG. 1G).
In juvenile after LTMD, 3r1 (a type of CCKBR agonist, Guangzhou Institute of Biomedicine and Health, affiliated with the Chinese Academy of Sciences, Guangzhou, China) (4.18 uM) is administered intraperitoneally (i.p). […]

[2] = system: juvenile C57BL/6 mice model of amblyopia (LTMD); assay: Visual water behavioral test of visual acuity after long-term monocular deprivation; format: in vivo; settings: for Visual acuity: Long-term MD (P21-P42) mice, WT adult 0.44; for Performance (percentage accuracy) during training after treatment / Visual acuity, Mean±SEM (FIG. 2G, post hoc analysis) / Cutoff (70% accuracy) achieved during testing: juvenile LTMD mice; for Performance (percentage accuracy) during training after treatment: cutoff 70% accuracy (FIG. 2F); for Visual acuity, Mean±SEM (FIG. 2G, post hoc analysis): WT 0.44±0.02 (P>0.05)
Source text: Amblyopia patients usually have poor visual acuity. It is believed that the method according to the invention can reverse the lost visual acuity in amblyopia patients. FIGS. 2A-2G illustrate the assessment of visual acuity using visual water maze. Dotted line represents the 70% accuracy as cutoff. As shown in FIGS. 2C-2E, WT adult (P60) mice with no MD show cutoff at cpd 0.45 achieved during testing by all the animals (12 animals). After LTMD in juvenile followed by saline (infusion)/CCK8s treatment, the mice show cutoff at cpd 0.30 and 0.52 respectively achieved during testing by all the animals (11 animals/12 animals respectively). After LTMD in juvenile followed by saline (i.p)/CCKBR agonist (3r1) treatment, the mice show cutoff at cpd 0.33 and 0.46 respectively achieved during testing by all the animals (11 animals/15 animals respectively). […] The performance of the animals during training in WT adult (P60) with no MD, before and after remained unchanged. After LTMD in juvenile, the performance of animals during training before and after saline (infusion) treatment remained unchanged and the performance of animals during training before and after CCK8s treatment show the difference. […] After LTMD in juvenile, the performance of animals during training before and after saline (i.p) treatment remained unchanged and the performance of animals during training before and after CCK-agonist (3r1) treatment show the difference. […] A significant difference is observed between saline (infusion) and CCK8s treated animals (P<0.001) and in between saline (i.p) and CCKBR agonist (3r1) (P<0.001). No significant difference in visual acuity observed in adult (P60), no MD and juvenile LTMD following CCK8s and CCKBR agonist (3r1) treated animals (P>0.05). Error bars in FIG. 2G indicate the standard error of the mean (SEM).
Visual water behavioral test is performed to show visual acuity improvement following long-term monocular deprivation after administration of CCK8s and CCKBR agonist (3r1). Each animal learns quickly to associate swimming to the escape platform placed below the screen displaying grating stimuli during pre-training phase and post-training phase. Animals of all groups learn serendipitously during training to swim to the end of the divider, and then look at each screen several times before making their choice.
FIGS. 2A and 2B show the behavioural experimental design of this example: (CCK8s) infusion in V1 and CCKBR agonist (3r1)(i.p). The testing criterion in the training phase (from P42 to P47) is reached for all mice within four sessions (32 trials). Average performance above 70% accuracy is maintained for all mice of different groups (FIG. 2F). The visual acuity of the groups is illustrated in FIGS. 2C-2E.

## Cholecystokinin octapeptide [CCK8s, reference compound]
[1]; juvenile LTMD (P21-P42) mice, infusion in V1, 1 ul each day (10 ng/ul), 15 days (P42-P57), saline CBI=0.33
  Contralateral bias index (CBI): 0.65
[1]; juvenile LTMD mice, infusion 15 days (FIG. 1G)
  Histogram of V1 cells, eye response bias: strong contralateral eye bias
[2]; infusion, saline (infusion) 0.3
  Visual acuity: 0.5 c/d
[2]
  Performance (percentage accuracy) during training after treatment: reaches beyond the cutoff
[2]; infusion, saline 0.309±0.01 (P<0.001)
  Visual acuity, Mean±SEM (FIG. 2G, post hoc analysis): 0.5±0.01 c/d
[2]; infusion, saline (infusion) 0.30, WT 0.45 (FIG. 2D)
  Cutoff (70% accuracy) achieved during testing: 0.52 cpd

## Ac-W[Nle]D[Phe(3-Br)]-NH2 [3r1]
[1]; juvenile LTMD mice, i.p., 4 doses on alternate days for 7 days, 0.0122890 mg/kg per dose, saline CBI=0.31
  Contralateral bias index (CBI): 0.66
[1]; juvenile LTMD mice, i.p., 8 doses on alternate days for 14 days, 0.0122890 mg/kg per dose, saline CBI=0.31
  Contralateral bias index (CBI): 0.68
[1]; juvenile LTMD mice, treatment for fourteen days (FIG. 1J)
  Histogram of V1 cells, eye response bias: strong contralateral eye bias
[1]; juvenile LTMD mice, treatment for seven days (FIG. 1I)
  Histogram of V1 cells, eye response bias: strong contralateral eye bias
[2]; i.p., saline (i.p) 0.33
  Visual acuity: 0.46 c/d
[2]
  Performance (percentage accuracy) during training after treatment: reaches beyond the cutoff
[2]; i.p., saline (i.p) 0.33, WT 0.45 (FIG. 2E)
  Cutoff (70% accuracy) achieved during testing: 0.46 cpd
[2]; i.p., saline (i.p) 0.33±0.01 (P<0.001)
  Visual acuity, Mean±SEM (FIG. 2G, post hoc analysis): 0.46±0.02 c/d
